{"source": "patent US7473790B2", "about": "(Pfizer Inc., priority 2003, dated 2009)", "note": "pIC50: −log10 of the molar value.", "data": [{"target": "T1, HCV polymerase (Hepatitis C virus genotype 1b, UniProt P26663)", "T1 construct": "2.5 pmoles (0.15 μg) HCV polymerase protein in a final volume of 75 μL", "T1 sequence (P26663 2420-3010)": "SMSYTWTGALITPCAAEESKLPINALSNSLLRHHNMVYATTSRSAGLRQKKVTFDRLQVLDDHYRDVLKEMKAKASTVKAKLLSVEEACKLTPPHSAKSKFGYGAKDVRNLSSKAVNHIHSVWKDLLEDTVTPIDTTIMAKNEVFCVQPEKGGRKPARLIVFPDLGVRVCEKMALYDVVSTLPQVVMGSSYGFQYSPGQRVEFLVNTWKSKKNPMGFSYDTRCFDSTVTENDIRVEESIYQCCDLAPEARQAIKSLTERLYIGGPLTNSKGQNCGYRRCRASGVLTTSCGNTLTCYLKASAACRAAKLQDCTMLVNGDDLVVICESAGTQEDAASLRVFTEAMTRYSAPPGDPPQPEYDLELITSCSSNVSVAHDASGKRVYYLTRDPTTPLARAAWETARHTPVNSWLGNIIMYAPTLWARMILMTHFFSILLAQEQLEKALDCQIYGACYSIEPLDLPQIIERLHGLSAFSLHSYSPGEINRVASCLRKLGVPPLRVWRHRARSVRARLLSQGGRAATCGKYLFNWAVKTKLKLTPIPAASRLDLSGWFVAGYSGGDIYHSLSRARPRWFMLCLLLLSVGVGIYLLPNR", "assay": "HCV polymerase primer/template-directed transcription assay (32P-GTP incorporation, filter binding)", "format": "biochemical", "conditions": "recombinant HCV polymerase; 30 minutes at 30° C.; concentration giving 50% inhibition of polymerase-directed transcription; read-out: IC50", "outline": "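Recombinant genotype 1b polymerase (30 nM) extended biotin-dG12 primer on poly(rC)300 template with 1 μM GTP plus α-32P-GTP, pH 7.2, 10 mM MgCl2, 30 min at 30° C, 1% DMSO final. Products captured on DE filters and counted. IC50 fitted from triplicate cpm, with a tight-binding correction applied below 200 nM.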", "values": [{"smiles": "COc1ccc(CCC2(C3CCCC3)CC(O)=C(Sc3ncc4[nH]cnc4n3)C(=O)O2)cc1Cl", "note": "(stereo not drawn) [C(67), 6-[2-(3-chloro-4-methoxyphenyl)ethyl]-6-cyclopentyl-4-hydroxy-3-(7H-purin-2-ylthio)-5,6-dihydro-2H-pyran-2-one]", "pIC50": 7.30}, {"smiles": "COc1ccc(CCC2(C3CCCC3)CC(O)=C(Sc3ncnc4ccccc34)C(=O)O2)cc1Cl", "note": "(stereo not drawn) [C(68), 6-[2-(3-chloro-4-methoxyphenyl)ethyl]-6-cyclopentyl-4-hydroxy-3-(quinazolin-4-ylthio)-5,6-dihydro-2H-pyran-2-one]", "pIC50": 6.70}, {"smiles": "Cc1cc(C)n2nc(SC3=C(O)CC(CCc4ccc(C(F)F)c(F)c4)(C4CCCC4)OC3=O)nc2n1", "note": "(stereo not drawn) [C(69), 6-Cyclopentyl-6-{2-[4-(difluoromethyl)-3-fluorophenyl]ethyl}-3-[(5,7-dimethyl[1,2,4]triazolo[1,5-a]pyrimidin-2-yl)thio]-4-hydroxy-5,6-dihydro-2H-pyran-2-one]", "pIC50": 6.89}, {"smiles": "COc1cc(OC)c(CCC2(C3CCCC3)CC(O)=C(Sc3nc4nc[nH]c(=O)c4[nH]3)C(=O)O2)cc1Cl", "note": "(stereo not drawn) [C(70), 8-({6-[2-(5-chloro-2,4-dimethoxyphenyl)ethyl]-6-cyclopentyl-4-hydroxy-2-oxo-5,6-dihydro-2H-pyran-3-yl}thio)-1,7-dihydro-6H-purin-6-one]", "pIC50": 8.13}, {"smiles": "COc1cc(OC)c(CCC2(C3CCCC3)CC(O)=C(Sc3n[nH]c(-c4ccccc4)n3)C(=O)O2)cc1Cl", "note": "(stereo not drawn) [C(71), 6-[2-(5-Chloro-2,4-dimethoxyphenyl)ethyl]-6-cyclopentyl-4-hydroxy-3-[(5-phenyl-1H-1,2,4-triazol-3-yl)thio]-5,6-dihydro-2H-pyran-2-one]", "pIC50": 7.24}, {"smiles": "COc1cc(OC)c(CCC2(C3CCCC3)CC(O)=C(Sc3nnnn3C)C(=O)O2)cc1Cl", "note": "(stereo not drawn) [C(72), 6-[2-(5-Chloro-2,4-dimethoxyphenyl)ethyl]-6-cyclopentyl-4-hydroxy-3-[(1-methyl-1H-tetrazol-5-yl)thio]-5,6-dihydro-2H-pyran-2-one]", "pIC50": 7.11}, {"smiles": "COc1cc(OC)c(CCC2(C3CCCC3)CC(O)=C(Sc3nc4cc(Cl)ccc4n3C(C)C)C(=O)O2)cc1Cl", "note": "(stereo not drawn) [C(73), 6-[2-(5-Chloro-2,4-dimethoxyphenyl)ethyl]-3-[(5-chloro-1-isopropyl-1H-benzimidazol-2-yl)thio]-6-cyclopentyl-4-hydroxy-5,6-dihydro-2H-pyran-2-one]", "pIC50": 7.46}, {"smiles": "COc1cc(OC)c(CCC2(C3CCCC3)CC(O)=C(Sc3nc(O)cc(C(F)(F)F)n3)C(=O)O2)cc1Cl", "note": "(stereo not drawn) [C(74), 6-[2-(5-chloro-2,4-dimethoxyphenyl)ethyl]-6-cyclopentyl-4-hydroxy-3-{[4-hydroxy-6-(trifluoromethyl)pyrimidin-2-yl]thio}-5,6-dihydro-2H-pyran-2-one]", "pIC50": 7.00}, {"smiles": "COc1cc(OC)c(CCC2(C3CCCC3)CC(O)=C(Sc3nnc(-c4cccnc4)[nH]3)C(=O)O2)cc1Cl", "note": "(stereo not drawn) [C(75), 6-[2-(5-chloro-2,4-dimethoxyphenyl)ethyl]-6-cyclopentyl-4-hydroxy-3-[(5-pyridin-3-yl-4H-1,2,4-triazol-3-yl)thio]-5,6-dihydro-2H-pyran-2-one]", "pIC50": 7.36}, {"smiles": "COc1cc(OC)c(CCC2(C3CCCC3)CC(O)=C(Sc3nc4cc(N)ccc4n3C)C(=O)O2)cc1Cl", "note": "(stereo not drawn) [C(76), 3-[(5-amino-1-methyl-1H-benzimidazol-2-yl)thio]-6-[2-(5-chloro-2,4-dimethoxyphenyl)ethyl]-6-cyclopentyl-4-hydroxy-5,6-dihydro-2H-pyran-2-one]", "pIC50": 7.28}, {"smiles": "COc1cc(OC)c(CCC2(C3CCCC3)CC(O)=C(Sc3ncc(-c4cccnc4)[nH]3)C(=O)O2)cc1Cl", "note": "(stereo not drawn) [C(77), 6-[2-(5-chloro-2,4-dimethoxyphenyl)ethyl]-6-6cyclopentyl-4-hydroxy-3-[(5-pyridin-3-yl-1H-imidazol-2-yl)thio]-5,6-2H-pyran-2-one]", "pIC50": 7.21}, {"smiles": "COc1cc(OC)c(CCC2(C3CCCC3)CC(O)=C(Sc3nccnc3C)C(=O)O2)cc1Cl", "note": "(stereo not drawn) [C(78), 6-[2-(5-chloro-2,4-dimethoxyphenyl)ethyl]-6-cyclopentyl-4-hydroxy-3[(3-methylpyrazin-2-yl)thio]-5,6-dihydro-2H-pyran-2-one]", "pIC50": 7.33}, {"smiles": "COc1cccc(-c2nnc(SC3=C(O)CC(CCc4cc(Cl)c(OC)cc4OC)(C4CCCC4)OC3=O)n2C)c1", "note": "(stereo not drawn) [C(79), 6-[2-(5-chloro-2,4-dimethoxyphenyl)ethyl]-6-cyclopentyl-4-hydroxy-3-{[5-(3-methoxyphenyl)-4-methyl-4H-1,2,4-triazol-3-yl]thio}-5,6-dihydro-2H-pyran-2-one]", "pIC50": 7.20}, {"smiles": "COc1cc(OC)c(CCC2(C3CCCC3)CC(O)=C(Sc3nnc(O)n3C(C)C)C(=O)O2)cc1Cl", "note": "(stereo not drawn) [C(80), 6-[2-(5-chloro-2,4-dimethoxyphenyl)ethyl]-6-cyclopentyl-4-hydroxy-3-[(5-hydroxy-4-isopropyl-4H-1,2,4-triazol-3-yl)thio]-5,6-dihydro-2H-pyran-2-one]", "pIC50": 7.51}, {"smiles": "COc1cc(OC)c(CCC2(C3CCCC3)CC(O)=C(Sc3nnc(-c4ccc(O)cc4)[nH]3)C(=O)O2)cc1Cl", "note": "(stereo not drawn) [C(81), 6-[2-(5-chlor-2,4-dimethoxyphenyl)ethyl]-6-cyclopentyl-4-hydroxy-3-{[5-(4-hydroxyphenyl)-4H-1,2,4-triazol-3-yl]thio}-5,6-dihydro-2H-pyran-2-one]", "pIC50": 7.85}, {"smiles": "COc1cc(OC)c(CCC2(C3CCCC3)CC(O)=C(Sc3nc4nc(C)ccn4n3)C(=O)O2)cc1Cl", "note": "(stereo not drawn) [C(82), 6-[2-(5-chloro-2,4-dimethoxyphenyl)ethyl]-6-cyclopentyl-4-hydroxy-3-[(5-methyl[1,2,4]triazolo[1,5-a]pyrimidin-2-yl)thio]-5,6-dihydro-2H-pyran-2-one]", "pIC50": 7.57}, {"smiles": "COc1cc(OC)c(CCC2(C3CCCC3)CC(O)=C(Sc3nnc(CN(C)C)n3C)C(=O)O2)cc1Cl", "note": "(stereo not drawn) [C(83)]", "pIC50": 7.40}, {"smiles": "COc1cc(OC)c(CCC2(C3CCCC3)CC(O)=C(Sc3nc4ncccn4n3)C(=O)O2)cc1Cl", "note": "(stereo not drawn) [C(84)]", "pIC50": 7.48}, {"smiles": "COc1cc(OC)c(CCC2(C3CCCC3)CC(O)=C(Sc3nnc(-c4cccnc4)n3C)C(=O)O2)cc1Cl", "note": "(stereo not drawn) [C(85), 6-[-(5-chloro-2,4-dimethoxyphenyl)ethyl]-6-cyclopentyl-4-hydroxy-3-[(4-methyl-5-pyridin-3-yl-4H-1,2,4-triazol-3-yl)thio]-5,6-dihydro-2H-pyran-2-one]", "pIC50": 7.46}, {"smiles": "COc1cc(OC)c(CCC2(C3CCCC3)CC(O)=C(Sc3nnc(C)n3CCN3CCOCC3)C(=O)O2)cc1Cl", "note": "(stereo not drawn) [C(86), 6-[2-(5-chloro-2,4-dimethoxyphenyl)ethyl]-6-cyclopentyl-4-hydroxy-3-{[5-methyl-4-(2-morpholin-4-ylethyl)-4H-1,2,4-triazol-3-yl]thio}-5,6-dihydro-2H-pyran-2-one]", "pIC50": 7.32}, {"smiles": "COc1cc(OC)c(CCC2(C3CCCC3)CC(O)=C(Sc3nc4ncc(C)cn4n3)C(=O)O2)cc1Cl", "note": "(stereo not drawn) [C(87), 6-[2-(5-chloro-2,4-dimethoxyphenyl)ethyl]-6-cyclopentyl-4-hydroxy-3-[(6-methyl[1,2,4]triazolo[1,5-a]pyrimidin-2-yl)thio]-5,6-dihydro-2H-pyran-2-one]", "pIC50": 7.55}, {"smiles": "COc1cc(OC)c(CCC2(C3CCCC3)CC(O)=C(Sc3nnc(C)n3C)C(=O)O2)cc1Cl", "note": "(stereo not drawn) [C(88), 6-[2-(5-chloro-2,4-dimethoxyphenyl)ethyl]-6-cyclopentyl-3-[(4,5-dimethyl-4H-1,2,4-triazol-3-yl)thio]-4-hydroxy-5,6-dihydro-2H-pyran-2-one]", "pIC50": 7.66}, {"smiles": "COC(=O)c1nnc(SC2=C(O)CC(CCc3cc(Cl)c(OC)cc3OC)(C3CCCC3)OC2=O)n1C", "note": "(stereo not drawn) [C(89), methyl 5-({6-[2-(5-chloro-2,4-dimethoxyphenyl)ethyl]-6-cyclopentyl-4-hydroxy-2-oxo-5,6-dihydro-2H-pyran-3-yl}thio)-4-methyl-4H-1,2,4-triazole-3-carboxylate]", "pIC50": 7.70}, {"smiles": "COc1cc(OC)c(CCC2(C3CCCC3)CC(O)=C(Sc3nnc(CCN4CCOCC4)n3C)C(=O)O2)cc1Cl", "note": "(stereo not drawn) [C(90), 6-[2-(5-chloro-2,4-dimethoxyphenyl)ethyl]-6-cyclopentyl-4-hydroxy-3-{[4-methyl-5-(2-morpholin-4-ylethyl)-4H-1,2,4-triazol-3-yl]thio}-5,6-dihydro-2H-pyran-2-one]", "pIC50": 7.40}, {"smiles": "COc1ccc(CCC2(C3CCCC3)CC(O)=C(Sc3nc4ncnc(O)c4[nH]3)C(=O)O2)cc1Cl", "note": "(stereo not drawn) [C(91), 3 6-[2-(3-chlor-4-methoxyphenyl)ethyl]-6-cyclopentyl-4-hydroxy-3-[(6-hydroxy-7H-purin-8-yl)thio]-5,6-dihydro-2H-pyran-2-one]", "pIC50": 7.40}, {"smiles": "COc1ccc(CCC2(C3CCCC3)CC(O)=C(Sc3nnc(-c4cccnc4)[nH]3)C(=O)O2)cc1Cl", "note": "(stereo not drawn) [C(92), 6-[2-(3-chloro-4-methoxyphenyl)ethyl]-6-cyclopentyl-4-hydroxy-3-[(5-pyridin-3-yl-4H-1,2,4-triazol-3-yl)thio]-5,6-dihydro-2H-pyran-2-one]", "pIC50": 7.09}, {"smiles": "CCOC(=O)c1cnc2nc(SC3=C(O)CC(CCc4cc(Cl)c(OC)cc4OC)(C4CCCC4)OC3=O)nn2c1", "note": "(stereo not drawn) [C(93), ethyl 2-({6-[2-(5-chloro-2,4-dimethoxyphenyl)ethyl]-6-cyclopentyl-4-hydroxy-2-oxo-5,6-dihydro-2H-pyran-3-yl}thio)[1,2,4]triazolo[1,5-a]pyrimidine-6-carboxylate]", "pIC50": 7.85}, {"smiles": "CCOC(=O)c1cnc2nc(SC3=C(O)CC(CCc4ccc(OC)c(Cl)c4)(C4CCCC4)OC3=O)nn2c1", "note": "(stereo not drawn) [C(94), ethyl 2-({6-[2-(3-chloro-4-methoxyphenyl)ethyl]-6-cyclopentyl-4-hydroxy-2-oxo-5,6-dihydro-2H-pyran-3-yl}thio)[1,2,4]triazolo[1,5-a]pyrimidine-6-carboxylate]", "pIC50": 7.06}, {"smiles": "COc1ccc(CCC2(C3CCCC3)CC(O)=C(Sc3nc4nccc(C)n4n3)C(=O)O2)cc1Cl", "note": "(stereo not drawn) [C(95), 6-[2-(3-chloro-4-methoxyphenyl)ethyl]-6-cyclopentyl-4-hydroxy-3-[(7-methyl[1,2,4]triazolo[1,5-a]pyrimidin-2-yl)thio]-5,6-dihydro-2H-pyran-2-one]", "pIC50": 7.13}, {"smiles": "COc1ccc(CCC2(C3CCCC3)CC(O)=C(Sc3nnc(-c4cccnc4)n3C)C(=O)O2)cc1Cl", "note": "(stereo not drawn) [C(96)]", "pIC50": 7.12}]}]}
